US8618286B2, “Benzoxazines, benzothiazines, and related compounds having NOS inhibitory activity” (NeurAxon, Inc., priority 2008, dated 2013)

What was measured:
[1] = biological target: Recombinant human inducible NOS (iNOS) (Homo sapiens (Human), UniProt P35228); assay: Human iNOS enzyme assay (Protocol 1 or Protocol 2, radiometric); format: biochemical
[2] = tested on: L5/L6 spinal nerve ligation model of neuropathic pain (Chung model); assay: Chung L5/L6 spinal nerve ligation model of neuropathic pain; format: in vivo, rat; settings: rats, L5/L6 SNL
Procedure: The L5/L6 spinal nerve was surgically ligated and animals allowed to recover for a period of 7-10 days. During this period animals develop neuropathic pain. The reduction of paw withdrawal latency after an infrared thermal stimulus (post-SNL) was measured following the induction period for comparison with pre-surgery baseline levels (BL). Following drug administration, thermal hyperalgesia was measured at various time points.
The L5/L6 spinal nerve was surgically ligated and animals allowed to recover for a period of 7-10 days. During this period animals develop neuropathic pain. The reduction of tactile thresholds (post-SNL) was measured following the induction period for comparison with pre-surgery baseline levels (BL). Following drug administration, tactile allodynia was measured at various time points with calibrated von-Frey filaments.
The experimental designs for the Chung Spinal Nerve Ligation SNL Model assay for neuropathic pain are depicted in FIGS. 1 and 2. Nerve ligation injury was performed according to the method described by Kim and Chung (Kim and Chung, Pain 50:355-363, 1992). This technique produces signs of neuropathic dysesthesias, including tactile allodynia, thermal hyperalgesia, and guarding of the affected paw. Rats were anesthetized with halothane, and the vertebrae over the L4 to S2 region were exposed. […]

[3] = tested on: Carrageenan model of inflammatory pain; assay: Carrageenan model of inflammatory pain; format: in vivo, rat; settings: rats
Procedure: Inflammation was induced by injecting 0.1 mL of a 3% carrageenan suspension s.c. into the supplanter aspect of a hindpaw of lightly anesthetized rats. Typically, pronounced inflammation and edema were obvious within three hours of the injection. The carrageenan model is a model of inflammatory pain with two components: the first occurring immediately after injection provides information on the acute nociceptive response to a painful stimulus (in this case, the chemical carrageenan). There is also a second, neurogenic component that develops several hours later and reflects the type of neuronal activity due to the hyperalgesic and allodynic components as found in neuropathic pain. Considerable evidence has shown that NO and its enzymes are involved in the central mechanisms of inflammatory hyperalgesia at the spinal cord level and that peripheral inflammation can upregulate nNOS expression and induce iNOS expression in the spinal cord (Guhring et al., J. Neurosci. 20:6714-6720, 2000; Wu et al., Exp. Brain Res. 118:457-465, 1998; and Wu et al., Pain 94:47-58, 2001).

CNCCN1CCSc2cc(NC(=N)c3cccs3)ccc21 [Compound 8, N-(4-(2-(methylamino)ethyl)-3,4-dihydro-2H-benzo[b][1,4]thiazin-7-yl)thiophene-2-carboximidamide]
IC50 [1]: 70.6 µM
reversal of tactile allodynia ([2]; i.p. 30 mg/kg, von Frey filaments): reversal of tactile allodynia
reversal of thermal hyperalgesia ([2]; i.p., text: e.g. 3 mg/kg, FIG. 3 legend: 30 mg/kg): clear effect
reversal of mechanical allodynia ([3]; ipsilateral paw, 60, 100, or 200 mg/kg p.o. (FIG. 6)): reversal of mechanical allodynia
reversal of thermal hyperalgesia (late phase), paw withdrawal latency ([3]; ipsilateral paw, text: i.p. dosing, FIG. 7 legend: 60, 100, or 200 mg/kg p.o.): reversal of thermal hyperalgesia
